According to patent publication US10519138B2, “Modulators of SOCE, compositions, and uses thereof” (Università degli Studi del Piemonte Orientale “Amedeo …, priority 2016, dated 2019):
Several values for one entry are separate records, joined by “and”; a condition that tells them apart may be missing. Identical values can stand only once.

Assays:
[1] = tested on: Store Operated Calcium Entry (SOCE) in BV-2 cells; test: Fluo-4 fluorimetric assay of tBHQ-induced store operated calcium entry in BV-2 cells; assay type: cell-based, mouse; conditions: for % Activation (10 μM): potentiation of calcium entry; for inhibition at 10 µM: Mus musculus, SOCE inhibition based on tBHQ-induced calcium influx
Experimental: (A) BV-2 cells were plated in poly-d-lysine coated 24-well plate and incubated overnight. After 24 hours, cells were loaded with 2 μM Fluo-4 and placed in an extracellular solution containing 0 mM Ca^2+. Stores were depleted with 50 μM tBHQ and calcium influx was stimulated by the addition of 2 mM Ca^2+ alone (Ctrl), or in conbination with: compound with no activity (NM-3A), and compounds that positively (4-(1-(4-(3,5-bis(trifluoromethyl)-1H-pyrazol-1-yl)phenyl)-1H-1,2,3-triazol-4-yl)benzoic acid) and negatively (3-(1-(4-(4-(ethoxycarbonyl)-5-(trifluoromethyl)-1H-pyrazol-1-yl)phenyl)-1H-1,2,3-triazol-4-yl)benzoic acid) regulate SOCE. Calcium responses are expressed as changes in fluorescence intensity before and after the addition of selected modulators. (B) BV-2 cells were assayed for a calcium response to different concentrations of 3-(1-(4-(4-(ethoxycarbonyl)-5-(trifluoromethyl)-1H-pyrazol-1-yl)phenyl)-1H-1,2,3-triazol-4-yl)benzoic acid and 4-(1-(4-(3,5-bis(trifluoromethyl)-1H-pyrazol-1-yl)phenyl)-1H-1,2,3-triazol-4-yl)benzoic acid (0.1-0.3-1-3-10-30-100 μM) using Fluo-4 fluorimetric assay. Concentration-response curves represent the AUC % of both compounds as compared to positive control.
Immortalized primary mouse microglial BV-2 cells were obtained from ATCC (ATCC® CRL-2540™, Rockville, Md., USA) and were cultured in Dulbecco's Modified Eagle's Medium (DMEM; Sigma-Aldrich, Italy), supplemented with 10% heat-inactivated FBS (Gibco, Italy), 1-glutamine 50 mg/mL (Sigma-Aldrich, Italy), penicillin 10 U/mL and streptomycin […] (Sigma-Aldrich, Italy) at 37° C., under a 5% CO2 humidified atmosphere. For experiments, the cells were plated 2×10^4 per ml in 24 well plates) or onto glass coverslips at concentrations of 4×10^4 per mL (24 mm diame-ter coverslips in 6 well plates).
BV-2 cells were loaded with 5 μM Fluo-4 AM in presence of 0.02% of Pluronic-127 (both from Life Technologies, Italy) and 10 μM sulfinpyrazone in Krebs-Ringer buffer (KRB, 135 mM NaCl, 5 mM KCl, 0.4 mM KH2PO4, 1 mM MgSO4, 5.5 mM glucose, 20 mM HEPES, pH 7.4) containing 2 mM CaCl2 (30 min, room temperature). Subsequently, cells were washed and incubated with KRB for other 30 min to allow de-esterification of Fluo-4 AM. Experiments were carried out prior to and during exposure of the cells to the Ca^2+-free solution. In the absence of Ca^2+, the intracellular Ca^2+ stores were depleted by 2,5-t-butylhydroquinone (tBHQ, 50 μM; Sigma-Aldrich, Italy), a SERCA poison, and then calcium 2 mM was re-added to the extracellular solution. Fluorescence is then monitored sequentially for a second in each well for 600 seconds with excitation at 494 nm and an emission wavelength at 516 nm on the V3 Victor plate-reader (Perkin Elmer), generating time-curves for each well. Data were analysed using Microsoft Excel and GraphPad Prism.
The percentage of SOCE inhibition for each compound was determined based on value of tBHQ-induced calcium influx into BV-2 cells (Table 2).

[2] = tested on: Store Operated Calcium Entry (SOCE) in Jurkat cells; test: Fura-2 single-cell Ca2+ measurement of tBHQ-induced SOCE in Jurkat cells; assay type: cell-based, human; conditions: for inhibition at 10 µM: Homo sapiens, SOCE modulation based on tBHQ-induced calcium influx
Experimental: Immortalized line of human T lymphocyte Jurkat cells were achieved from ATCC (ATCC® TIB-152™, Rockville, Md., USA) and were cultured in Roswell Park Memorial Institute Medium (RPMI 1640; Sigma-Aldrich, Italy), supplemented with 10% heat-inactivated FBS (Gibco, Italy), 1-glutamine 50 mg/mL (Sigma-Aldrich, Italy), penicillin 10 U/mL and streptomycin […] (Sigma-Aldrich, Italy) at 37° C., under a 5% CO2 humidified atmosphere. For experiments, the cells were plated onto glass coverslips at concentrations of 6×10^4 per mL (24 mm diameter coverslips in 6 well plates).
Compounds were also tested on Jurkat cells in single-cell analysis using Fura-2 AM on cover-slips. Jurkat cells were loaded with 5 μM Fura-2 AM in presence of 0.02% of Pluronic-127 (both from Life Technologies, Italy) and 1 μM sulfinpyrazone in Krebs-Ringer buffer (KRB, 135 mM NaCl, 5 mM KCl, 0.4 mM KH2PO4, 1 mM MgSO4, 5.5 mM glucose, 20 mM HEPES, pH 7.4) containing 2 mM CaCl2 (30 min, room temperature). Afterwards, cells were washed and incubated with KRB for other 30 min to allow de-esterification of Fura-2AM. To measure store operated calcium entry, changes in cytosolic Ca^2+ were monitored upon depletion of the intracellular Ca^2+ stores. Experiments were carried out prior to and during exposure of the cells to the Ca^2+-free solution. In the absence of Ca^2+, the intracellular Ca^2+ stores were depleted by inhibition of the vesicular Ca^2+ pump by 2,5-t-butylhydroquinone (tBHQ, 50 μM; Sigma-Aldrich, Italy). Re-addition of 2 mM Ca^2+ allowed assessing the SOCE. During the experiments the cover-slips were mounted into acquisition chamber and placed on the stage of a Leica DMI6000 epi-fluorescent microscope equipped with S Fluor ×40/1.3 objective. Fura-2 was excited by alternate 340 and 380 nm using a Polychrome IV mono-chromator (Till Photon-ics, Germany) and the probe emission light was filtered through 520/20 band-pass filter and collected by a cooled CCD camera (Hamamatsu, Japan). The fluorescence signals were acquired and processed using MetaFluor software (Molecular Device, Sun-Nyvale, C A, USA). To quantify the differences in the amplitudes of Ca^2+ transients the ratio values were normalized using the formula ΔF/F0 (referred to as normalized Fura-2 ratio, “Norm. Fura ratio”). The percentage of SOCE modulation for each of 15 compounds was determined based on value of tBHQ-induced calcium influx into Jurkat cells. Data were analysed using Microsoft Excel and GraphPad Prism.

ICRAC = ICRAC (Homo sapiens, UniProt Q96D31); conditions: read-out: IC50 (inhibition of ICRAC); cited from earlier work
Chain of ICRAC (Q96D31 whole entry): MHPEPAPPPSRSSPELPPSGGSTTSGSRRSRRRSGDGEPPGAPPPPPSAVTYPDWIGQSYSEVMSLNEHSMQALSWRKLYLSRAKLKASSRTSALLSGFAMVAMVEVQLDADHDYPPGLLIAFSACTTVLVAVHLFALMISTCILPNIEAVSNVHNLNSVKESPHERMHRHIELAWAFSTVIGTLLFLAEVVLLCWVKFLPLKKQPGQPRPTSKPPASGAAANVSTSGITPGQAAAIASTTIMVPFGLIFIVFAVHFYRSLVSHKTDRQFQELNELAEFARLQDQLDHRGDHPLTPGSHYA

SMILES	inhibition at 10 µM [1] [%]	inhibition at 10 µM [2] [%]	other results
CCOC(=O)c1cnn(-c2ccc(-c3cn(-c4ccc(Cl)cc4)nn3)cc2)c1C(F)(F)F [ethyl 1-(4-(1-(4-chlorophenyl)-1H-1,2,3-triazol-4-yl)phenyl)-5-(trifluoromethyl)-1H-pyrazole-4-carboxylate]			% Activation (10 μM) [1]: 47.07%; % Activation (10 μM) [2]: 122.94% and 126.78% and 97.32%
CCOC(=O)c1cnn(-c2ccc(-c3cn(-c4ccncc4F)nn3)cc2)c1C(F)(F)F [ethyl 1-(4-(1-(3-fluoropyridin-4-yl)-1H-1,2,3-triazol-4-yl)phenyl)-5-(trifluoromethyl)-1H-pyrazole-4-carboxylate]	37.7	32.9	
CCOC(=O)c1cnn(-c2ccc(-n3cc(-c4ccc(C(=O)O)cc4)nn3)cc2)c1C(F)(F)F [4-(1-(4-(4-(ethoxycarbonyl)-5-(trifluoromethyl)-1H-pyrazol-1-yl)phenyl)-1H-1,2,3-triazol-4-yl)benzoic acid]	40.1	32.3	
COC(=O)c1cnn(-c2ccc(-n3cc(-c4cccc(C(=O)O)c4)nn3)cc2)c1C(F)(F)F [3-(1-(4-(4-(methoxycarbonyl)-5-(trifluoromethyl)-1H-pyrazol-1-yl)phenyl)-1H-1,2,3-triazol-4-yl)benzoic acid]	12.4	21.8	
CCOC(=O)c1cnn(-c2ccc(-c3cn(CCCC(=O)O)nn3)cc2)c1C(F)(F)F [4-(4-(4-(4-(ethoxycarbonyl)-5-(trifluoromethyl)-1H-pyrazol-1-yl)phenyl)-1H-1,2,3-triazol-1-yl)butanoic acid]	30.1	19.1	
O=C(O)c1cccc(-c2cn(-c3ccc(-n4ncc(C(=O)OCc5ccncc5)c4C(F)(F)F)cc3)nn2)c1 [3-(1-(4-(4-((pyridin-4-ylmethoxy)carbonyl)-5-(trifluoromethyl)-1H-pyrazol-1-yl)phenyl)-1H-1,2,3-triazol-4-yl)benzoic acid]	54.6	57	
O=C(O)c1cnn(-c2ccc(-c3cn(-c4ccc(Cl)cc4)nn3)cc2)c1C(F)(F)F [1-(4-(1-(4-chlorophenyl)-1H-1,2,3-triazol-4-yl)phenyl)-5-(trifluoromethyl)-1H-pyrazole-4-carboxylic acid]			% Activation (10 μM) [2]: 100.13%
O=C(O)c1cccc(-c2cn(-c3ccc(-n4ncc(C(=O)OCc5ccccc5)c4C(F)(F)F)cc3)nn2)c1 [3-(1-(4-(4-((benzyloxy)carbonyl)-5-(trifluoromethyl)-1H-pyrazol-1-yl)phenyl)-1H-1,2,3-triazol-4-yl)benzoic acid]	87	33.5	
CC(C)OC(=O)c1cnn(-c2ccc(-n3cc(-c4cccc(C(=O)O)c4)nn3)cc2)c1C(F)(F)F [3-(1-(4-(4-(isopropoxycarbonyl)-5-(trifluoromethyl)-1H-pyrazol-1-yl)phenyl)-1H-1,2,3-triazol-4-yl)benzoic acid]	74.6	93.9	
CCOC(=O)c1cnn(-c2ccc(-c3cn(-c4cccc(C(=O)O)c4)nn3)cc2)c1C(F)(F)F [3-(4-(4-(4-(ethoxycarbonyl)-5-(trifluoromethyl)-1H-pyrazol-1-yl)phenyl)-1H-1,2,3-triazol-1-yl)benzoic acid]	43.3	63.6	
O=C(O)c1ccc(-c2cn(-c3ccc(-n4nc(C(F)(F)F)cc4C(F)(F)F)cc3)nn2)cc1 [4-(1-(4-(3,5-bis(trifluoromethyl)-1H-pyrazol-1-yl)phenyl)-1H-1,2,3-triazol-4-yl)benzoic acid]			% Activation (10 μM) [1]: 125.15%; Regulation of SOCE (calcium response, representative traces FIG. 2A) ([1]; Fluo-4, 50 μM tBHQ, 2 mM Ca2+ re-addition): positively; % Activation (10 μM) [2]: 136.42%
O=C(O)c1cccc(-c2cn(-c3ccc(-n4ncc(C(=O)OCCN5CCOCC5)c4C(F)(F)F)cc3)nn2)c1 [3-(1-(4-(4-((2-morpholinoethoxy)carbonyl)-5-(trifluoromethyl)-1H-pyrazol-1-yl)phenyl)-1H-1,2,3-triazol-4-yl)benzoic acid]	95.7	25.1	
O=C(O)c1cccc(-c2cn(-c3ccc(-n4nc(C(F)(F)F)cc4C(F)(F)F)cc3)nn2)c1 [3-(1-(4-(3,5-bis(trifluoromethyl)-1H-pyrazol-1-yl)phenyl)-1H-1,2,3-triazol-4-yl)benzoic acid]	38.7	38.3	
CCOC(=O)c1cnn(-c2ccc(-n3cc(-c4ccc(O)c(OC)c4)nn3)cc2)c1C(F)(F)F [ethyl 1-(4-(4-(4-hydroxy-3-methoxyphenyl)-1H-1,2,3-triazol-1-yl)phenyl)-5-(trifluoromethyl)-1H-pyrazole-4-carboxylate]	35	78.4	
COc1ccc(OC)c(-c2ccc(NC(=O)c3ccncc3F)cc2)c1 [Synta66]			IC50 (ICRAC): 300 nM
O=C(O)c1cccc(-n2cc(-c3ccc(-n4nc(C(F)(F)F)cc4C(F)(F)F)cc3)nn2)c1 [3-(4-(4-(3,5-bis(trifluoromethyl)-1H-pyrazol-1-yl)phenyl)-1H-1,2,3-triazol-1-yl)benzoic acid]	30.5	39.7	
